In ChEMBL document CHEMBL5505992, “Novel membrane-targeting isoxanthohumol-amine conjugates for combating methicillin-resistant Staphylococcus aureus (MRSA) infections” (Eur J Med Chem, 2024):
The source made the active and inactive calls. The calls are words filed in the database; no cut-off is given here.

Assays:
Staphylococcus aureus [1] = experiment: Bactericidal activity against methicillin-resistant Staphylococcus aureus incubated with 3 to 6 hrs compound treated plasma; type: functional; details: time 3-6 hrs
[2] = Cytotoxicity against human L02 cells assessed as cell viability at <=16 ug/ml by CCK-8 method relative to control; type: toxicity, cell-based; details: up to 16 µg/mL, read-out: Activity
Cell membrane [3] = experiment: Disruption of cell membrane in methicillin-resistant Staphylococcus aureus clinical isolate MRSA-16 assessed as increase in intracellular ROS production at upto 64 ug/ml measured after 40 mins by DCFH-DA dye based fluorescence assay; type: cell membranes; details: dose <= 64.0 µg/ml
[4] = Toxicity in Kunming mouse assessed as adverse effect at 5 to 10 mg/kg, sc measured after 24 hrs; type: organism-based; details: in vivo, dose 5-10 mg/kg
Staphylococcus aureus [5] = experiment: Antibacterial activity against methicillin-resistant Staphylococcus aureus infected in Kunming mouse skin infection model assessed as smooth dorsal skin at 8 mg/kg,sc measured after 24 hrs; type: functional, organism-based
Staphylococcus aureus [6] = experiment: Antibacterial activity against methicillin-resistant Staphylococcus aureus clinical isolate MRSA-18 measured after 16 to 18 hrs by CLSI method; type: functional; details: time 16-18 hrs
Escherichia coli = experiment: Antibacterial activity against Escherichia coli ATCC25922 measured after 16 to 18 hrs by CLSI method; type: functional; details: time 16-18 hrs
Cell membrane [7] = experiment: Induction of cell membrane permeability in methicillin-resistant Staphylococcus aureus clinical isolate MRSA-16 assessed as decrease in intact cells (Q3 region) at 8 ug/ml incubated for 2 hrs by SYTO 9 and PI staining based flow cytometry analysis (reference value: 99.07%); type: cell membranes; set-up: scale not given: the % may be the effect or the level left; details: dose 8.0 µg/ml
[8] = Toxicity in Kunming mouse assessed as effect on lung at 10 mg/kg, sc measured after 24 hrs by H and E staining based analysis; type: organism-based; details: in vivo
Cell membrane [9] = experiment: Induction of cell membrane permeability in methicillin-resistant Staphylococcus aureus clinical isolate MRSA-16 assessed as decrease in intact cells (Q3 region) at 16 ug/ml incubated for 2 hrs by SYTO 9 and PI staining based flow cytometry analysis (reference value: 99.07%); type: cell membranes; set-up: scale not given: the % may be the effect or the level left; details: dose 16.0 µg/ml
Cell membrane [10] = experiment: Disruption of cell membrane in methicillin-resistant Staphylococcus aureus clinical isolate MRSA-16 assessed as increase in intracellular protein leakage incubated for 4 hrs by microspectrophotometer analysis; type: cell membranes
Staphylococcus aureus [11] = experiment: Antibacterial activity against methicillin-resistant Staphylococcus aureus infected in Kunming mouse skin infection model assessed as decrease in bacterial load at 8 mg/kg,sc measured after 24 hrs; type: functional
[12] = Selectivity index, ratio of HC50 for hemolytic activity in sheep erythrocytes to MIC for antibacterial activity against Staphylococcus aureus ATCC 29213; type: toxicity, cell-based; details: read-out: Selectivity Index
[13] = Toxicity in Kunming mouse assessed as histopathological abnormalities in kidney at 4 to 8 mg/kg, sc measured after 24 hrs by H and E staining based analysis; type: organism-based; details: in vivo, dose 4-8 mg/kg
Staphylococcus aureus [14] = experiment: Antibacterial activity against Staphylococcus aureus ATCC 29213 measured after 20 passages for 16 to 18 hrs; type: functional; details: time 16-18 hrs
Cell membrane [15] = experiment: Induction of cell membrane permeability in methicillin-resistant Staphylococcus aureus clinical isolate MRSA-16 assessed as increase in damaged cells (Q2 region) at 4 ug/ml incubated for 2 hrs by SYTO 9 and PI staining based flow cytometry analysis (reference value: 0.91%); type: cell membranes; details: dose 4.0 µg/ml
Staphylococcus aureus [16] = experiment: Antibacterial activity against methicillin-resistant Staphylococcus aureus clinical isolate MRSA-14 measured after 16 to 18 hrs by CLSI method; type: functional; details: time 16-18 hrs
Staphylococcus aureus [17] = experiment: Antibacterial activity against methicillin-resistant Staphylococcus aureus infected in Kunming mouse skin infection model assessed as effect on skin abscesses in subcutaneous tissue at 8 mg/kg,sc measured after 24 hrs; type: functional, organism-based
[18] = Toxicity in Kunming mouse assessed as redness in back of skin at 20 mg/kg, sc measured after 24 hrs; type: organism-based; details: in vivo
Staphylococcus aureus [19] = experiment: Antibacterial activity against methicillin-resistant Staphylococcus aureus infected in Kunming mouse skin infection model assessed as decrease in bacterial load at 4 mg/kg,sc measured after 24 hrs; type: functional
Cell membrane [20] = experiment: Disruption of cell membrane in methicillin-resistant Staphylococcus aureus clinical isolate MRSA-16 assessed as fold increase in intracellular ROS production at 64 ug/ml measured after 40 mins by DCFH-DA dye based fluorescence assay; type: cell membranes; details: dose 64.0 µg/ml
Staphylococcus aureus [21] = experiment: Antibacterial activity against methicillin-resistant Staphylococcus aureus clinical isolate MRSA-17 measured after 16 to 18 hrs by CLSI method; type: functional; details: time 16-18 hrs
Staphylococcus aureus [22] = experiment: Antibacterial activity against methicillin-resistant Staphylococcus aureus infected in Kunming mouse skin infection model assessed as appearance of small number of infiltrated inflammatory cells in skin dermis at 8 mg/kg,sc measured after 24 hrs; type: functional, organism-based
Staphylococcus aureus [23] = experiment: Bactericidal activity against Staphylococcus aureus ATCC 29213 assessed as bacterial killing at 8 times MIC measured within 0.5 to 1 hrs by time kill assay relative to control; type: functional; details: time 0.5-1 hrs
Staphylococcus aureus [24] = experiment: Antibacterial activity against methicillin-resistant Staphylococcus aureus in presence of cardiolipin; type: functional, organism-based
Staphylococcus aureus [25] = experiment: Antibacterial activity against methicillin-resistant Staphylococcus aureus infected in Kunming mouse skin infection model assessed as reduction in inflammatory cells at 4 to 8 mg/kg,sc measured after 24 hrs; type: functional, organism-based; details: dose 4-8 mg/kg
Staphylococcus aureus [26] = experiment: Antibacterial activity against methicillin-resistant Staphylococcus aureus clinical isolate MRSA-23 measured after 16 to 18 hrs by CLSI method; type: functional; details: time 16-18 hrs
Staphylococcus aureus [27] = experiment: Antibacterial activity against methicillin-resistant Staphylococcus aureus infected in Kunming mouse skin infection model assessed as appearance of small number of infiltrated inflammatory cells in subcutaneous tissue at 8 mg/kg,sc measured after 24 hrs; type: functional, organism-based
[28] = Toxicity in Kunming mouse assessed as histopathological abnormalities in spleen at 10 mg/kg, sc measured after 24 hrs by H and E staining based analysis; type: organism-based; details: in vivo
Cell membrane [29] = experiment: Disruption of cell membrane in methicillin-resistant Staphylococcus aureus clinical isolate MRSA-16 assessed as increase in intracellular DNA leakage incubated for 4 hrs by microspectrophotometer analysis; type: cell membranes
[30] = Toxicity in Kunming mouse assessed as effect on skin at 10 mg/kg, sc measured after 24 hrs by H and E staining based analysis; type: organism-based; details: in vivo
Staphylococcus aureus [31] = experiment: Antibacterial activity against methicillin-resistant Staphylococcus aureus in presence of peptidoglycan; type: functional
Cell membrane [32] = experiment: Induction of cell membrane permeability in methicillin-resistant Staphylococcus aureus clinical isolate MRSA-16 assessed as dead cells (Q1 region) at 16 ug/ml incubated for 2 hrs by SYTO 9 and PI staining based flow cytometry analysis (reference value: 0.00%); type: cell membranes; details: dose 16.0 µg/ml
Staphylococcus aureus [33] = experiment: Antibacterial activity against methicillin-resistant Staphylococcus aureus clinical isolate MRSA-11 measured after 16 to 18 hrs by CLSI method; type: functional; details: time 16-18 hrs
[34] = Toxicity in Kunming mouse assessed as survival rate at 40 mg/kg, sc measured after 24 hrs relative to control; type: organism-based; details: in vivo
[35] = Toxicity in Kunming mouse assessed as effect on liver at 4 to 8 mg/kg, sc measured after 24 hrs by H and E staining based analysis; type: organism-based; details: in vivo, dose 4-8 mg/kg
Cell membrane [36] = experiment: Induction of cytoplasmic membrane depolarization in methicillin-resistant Staphylococcus aureus clinical isolate MRSA-16 assessed as fold increase in fluorescence intensity at 32 ug/ml measured every 2 mins for 20 mins by SYTOX green staining based analysis; type: cell membranes; details: dose 32.0 µg/ml

CCCC[N+](C)(CCCC)CCCCCOc1ccc(C2CC(=O)c3c(OC)cc(OCCCCC[N+](C)(CCCC)CCCC)c(CC=C(C)C)c3O2)cc1.[I-].[I-] (configuration not stated)
MBC (Staphylococcus aureus [1]): 4 µg/mL | viability [2]: 100% | Activity (Cell membrane [3]): Active | Activity [4]: Non-Toxic | Activity (Staphylococcus aureus [5]): Active | MIC (Staphylococcus aureus [6]): 0.5 µg/mL | MIC (Escherichia coli): 16 µg/mL | Activity (Cell membrane [7]): 39.7% | Activity [8]: Non-Toxic | Activity (Cell membrane [9]): 1.58% | Activity (Cell membrane [10]): Active | Activity (Staphylococcus aureus [11]): 5 log10CFU/g | selectivity ratio [12]: > 1280 | Activity [13]: Non-Toxic | MIC (Staphylococcus aureus [14]): 1 µg/mL | Activity (Cell membrane [15]): 38.6% | MIC (Staphylococcus aureus [16]): 0.25 µg/mL | Activity (Staphylococcus aureus [17]): inactive | Activity [18]: Toxic | Activity (Staphylococcus aureus [19]): 3.2 log10CFU/g | fold change (FC) (Cell membrane [20]): 4 | MIC (Staphylococcus aureus [21]): 0.25 µg/mL | Activity (Staphylococcus aureus [22]): Active | Activity (Staphylococcus aureus [23]): 100% | Activity (Staphylococcus aureus [24]): Active | Activity (Staphylococcus aureus [25]): Active | MIC (Staphylococcus aureus [26]): 0.25 µg/mL | Activity (Staphylococcus aureus [27]): Active | Activity [28]: Non-Toxic | Activity (Cell membrane [29]): Active | Activity [30]: Non-Toxic | MIC (Staphylococcus aureus [31]): 32 µg/mL | Activity (Cell membrane [32]): 28.4% | MIC (Staphylococcus aureus [33]): 0.5 µg/mL | survival at 24 h [34]: 80% | Activity [35]: Non-Toxic | fold change (FC) (Cell membrane [36]): 7
